Columns and labels:
Experiment in all cases: relative viability (nuclei count vs DMSO), 5 days (fraction); higher = more cells survive
ABC-1 = system: ABC-1
How it was run: (§1)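 After 5 days of treatment, lung cancer cells in 1536-well plates were fixed and stained in a single step (final 0.05% Triton X-100, 1% formaldehyde, 1 ug/ml Hoechst) and their nuclei counted on 4× images. Treatment had been applied by pin tool the day after seeding as one drug alone or as a fixed anchor-drug dose with five library-drug doses (not always all listed) in √10 steps. Relative viability is the nuclei count of treated wells divided by that of vehicle wells, and values are medians of duplicate plates.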

CAL-12T = system: CAL-12T
How it was run: as §1

COR-L 105 = system: COR-L 105
How it was run: as §1

ChaGo-K-1 = system: ChaGo-K-1
How it was run: as §1

EMC-BAC-2 = system: EMC-BAC-2
How it was run: as §1

EPLC-272H = system: EPLC-272H
How it was run: as §1

HCC-15 = system: HCC-15
How it was run: as §1

HCC-78 = system: HCC-78
How it was run: as §1

HOP-62 = system: HOP-62
How it was run: as §1

LXF-289 = system: LXF-289
How it was run: as §1

NCI-H1666 = system: NCI-H1666
How it was run: as §1

NCI-H1755 = system: NCI-H1755
How it was run: as §1

NCI-H1915 = system: NCI-H1915
How it was run: as §1

NCI-H1975 = system: NCI-H1975
How it was run: as §1

NCI-H1993 = system: NCI-H1993
How it was run: as §1

NCI-H2023 = system: NCI-H2023
How it was run: as §1

NCI-H2085 = system: NCI-H2085
How it was run: as §1

NCI-H2126 = system: NCI-H2126
How it was run: as §1

NCI-H3122 = system: NCI-H3122
How it was run: as §1

NCI-H322M = system: NCI-H322M
How it was run: as §1

NCI-H358 = system: NCI-H358
How it was run: as §1

NCI-H441 = system: NCI-H441
How it was run: as §1

NCI-H522 = system: NCI-H522
How it was run: as §1

UMC-11 = system: UMC-11
How it was run: as §1

COc1cc(N2CCC(C(N)=O)CC2)ccc1Nc1nc(N)c(Cl)c(Nc2ccccc2S(=O)(=O)C(C)C)n1 [HG-5-88-01] + N=C(N)NC(=N)NCCc1ccccc1 [Phenformin] (partner 250 µM)
relative viability (ABC-1; first compound 0.04 µM): 0.272
relative viability (ABC-1; first compound 0.1265 µM): 0.233
relative viability (ABC-1; first compound 0.4 µM): 0.2
relative viability (ABC-1; first compound 1.265 µM): 0.207
relative viability (ABC-1; first compound 4 µM): 0.24
relative viability (CAL-12T; first compound 0.04 µM): 0.543
relative viability (CAL-12T; first compound 0.1265 µM): 0.572
relative viability (CAL-12T; first compound 0.4 µM): 0.533
relative viability (CAL-12T; first compound 1.265 µM): 0.392
relative viability (CAL-12T; first compound 4 µM): 0.253
relative viability (COR-L 105; first compound 0.04 µM): 0.61
relative viability (COR-L 105; first compound 0.1265 µM): 0.511
relative viability (COR-L 105; first compound 0.4 µM): 0.47
relative viability (COR-L 105; first compound 1.265 µM): 0.324
relative viability (COR-L 105; first compound 4 µM): 0.296
relative viability (ChaGo-K-1; first compound 0.04 µM): 0.586
relative viability (ChaGo-K-1; first compound 0.1265 µM): 0.51
relative viability (ChaGo-K-1; first compound 0.4 µM): 0.449
relative viability (ChaGo-K-1; first compound 1.265 µM): 0.525
relative viability (ChaGo-K-1; first compound 4 µM): 0.383
relative viability (EMC-BAC-2; first compound 0.04 µM): 0.541
relative viability (EMC-BAC-2; first compound 0.1265 µM): 0.491
relative viability (EMC-BAC-2; first compound 0.4 µM): 0.442
relative viability (EMC-BAC-2; first compound 1.265 µM): 0.507
relative viability (EMC-BAC-2; first compound 4 µM): 0.486
relative viability (EPLC-272H; first compound 0.04 µM): 0.352
relative viability (EPLC-272H; first compound 0.1265 µM): 0.34
relative viability (EPLC-272H; first compound 0.4 µM): 0.274
relative viability (EPLC-272H; first compound 1.265 µM): 0.253
relative viability (EPLC-272H; first compound 4 µM): 0.0477
relative viability (HCC-15; first compound 0.04 µM): 0.528
relative viability (HCC-15; first compound 0.1265 µM): 0.488
relative viability (HCC-15; first compound 0.4 µM): 0.4
relative viability (HCC-15; first compound 1.265 µM): 0.461
relative viability (HCC-15; first compound 4 µM): 0.231
relative viability (HCC-78; first compound 0.04 µM): 0.602
relative viability (HCC-78; first compound 0.1265 µM): 0.584
relative viability (HCC-78; first compound 0.4 µM): 0.447
relative viability (HCC-78; first compound 1.265 µM): 0.306
relative viability (HCC-78; first compound 4 µM): 0.324
relative viability (HOP-62; first compound 0.04 µM): 0.662
relative viability (HOP-62; first compound 0.1265 µM): 0.65
relative viability (HOP-62; first compound 0.4 µM): 0.654
relative viability (HOP-62; first compound 1.265 µM): 0.725
relative viability (HOP-62; first compound 4 µM): 0.718
relative viability (LXF-289; first compound 0.04 µM): 0.565
relative viability (LXF-289; first compound 0.1265 µM): 0.589
relative viability (LXF-289; first compound 0.4 µM): 0.415
relative viability (LXF-289; first compound 1.265 µM): 0.51
relative viability (LXF-289; first compound 4 µM): 0.431
relative viability (NCI-H1666; first compound 0.04 µM): 0.581
relative viability (NCI-H1666; first compound 0.1265 µM): 0.57
relative viability (NCI-H1666; first compound 0.4 µM): 0.544
relative viability (NCI-H1666; first compound 1.265 µM): 0.558
relative viability (NCI-H1666; first compound 4 µM): 0.459
relative viability (NCI-H1755; first compound 0.04 µM): 0.634
relative viability (NCI-H1755; first compound 0.1265 µM): 0.612
relative viability (NCI-H1755; first compound 0.4 µM): 0.605
relative viability (NCI-H1755; first compound 1.265 µM): 0.616
relative viability (NCI-H1755; first compound 4 µM): 0.521
relative viability (NCI-H1915; first compound 0.04 µM): 0.38
relative viability (NCI-H1915; first compound 0.1265 µM): 0.354
relative viability (NCI-H1915; first compound 0.4 µM): 0.381
relative viability (NCI-H1915; first compound 1.265 µM): 0.416
relative viability (NCI-H1915; first compound 4 µM): 0.328
relative viability (NCI-H1975; first compound 0.04 µM): 0.437
relative viability (NCI-H1975; first compound 0.1265 µM): 0.416
relative viability (NCI-H1975; first compound 0.4 µM): 0.354
relative viability (NCI-H1975; first compound 1.265 µM): 0.365
relative viability (NCI-H1975; first compound 4 µM): 0.188
relative viability (NCI-H1993; first compound 0.04 µM): 0.501
relative viability (NCI-H1993; first compound 0.1265 µM): 0.471
relative viability (NCI-H1993; first compound 0.4 µM): 0.438
relative viability (NCI-H1993; first compound 1.265 µM): 0.558
relative viability (NCI-H1993; first compound 4 µM): 0.527
relative viability (NCI-H2023; first compound 0.04 µM): 0.521
relative viability (NCI-H2023; first compound 0.1265 µM): 0.466
relative viability (NCI-H2023; first compound 0.4 µM): 0.473
relative viability (NCI-H2023; first compound 1.265 µM): 0.411
relative viability (NCI-H2023; first compound 4 µM): 0.34
relative viability (NCI-H2085; first compound 0.04 µM): 0.656
relative viability (NCI-H2085; first compound 0.1265 µM): 0.799
relative viability (NCI-H2085; first compound 0.4 µM): 0.685
relative viability (NCI-H2085; first compound 1.265 µM): 0.622
relative viability (NCI-H2085; first compound 4 µM): 0.395
relative viability (NCI-H2126; first compound 0.04 µM): 0.552
relative viability (NCI-H2126; first compound 0.1265 µM): 0.58
relative viability (NCI-H2126; first compound 0.4 µM): 0.525
relative viability (NCI-H2126; first compound 1.265 µM): 0.461
relative viability (NCI-H2126; first compound 4 µM): 0.384
relative viability (NCI-H3122; first compound 0.04 µM): 0.216
relative viability (NCI-H3122; first compound 0.1265 µM): 0.17
relative viability (NCI-H3122; first compound 0.4 µM): 0.146
relative viability (NCI-H3122; first compound 1.265 µM): 0.129
relative viability (NCI-H3122; first compound 4 µM): 0.15
relative viability (NCI-H322M; first compound 0.04 µM): 0.793
relative viability (NCI-H322M; first compound 0.1265 µM): 0.669
relative viability (NCI-H322M; first compound 0.4 µM): 0.689
relative viability (NCI-H322M; first compound 4 µM): 0.704
relative viability (NCI-H358; first compound 0.04 µM): 0.268
relative viability (NCI-H358; first compound 0.1265 µM): 0.246
relative viability (NCI-H358; first compound 0.4 µM): 0.216
relative viability (NCI-H358; first compound 1.265 µM): 0.129
relative viability (NCI-H358; first compound 4 µM): 0.139
relative viability (NCI-H441; first compound 0.04 µM): 0.835
relative viability (NCI-H441; first compound 0.1265 µM): 0.789
relative viability (NCI-H441; first compound 0.4 µM): 0.852
relative viability (NCI-H441; first compound 1.265 µM): 0.589
relative viability (NCI-H441; first compound 4 µM): 0.294
relative viability (NCI-H522; first compound 0.04 µM): 0.711
relative viability (NCI-H522; first compound 0.1265 µM): 0.657
relative viability (NCI-H522; first compound 0.4 µM): 0.697
relative viability (NCI-H522; first compound 1.265 µM): 0.558
relative viability (NCI-H522; first compound 4 µM): 0.502
relative viability (UMC-11; first compound 0.04 µM): 0.336
relative viability (UMC-11; first compound 0.1265 µM): 0.419
relative viability (UMC-11; first compound 1.265 µM): 0.359
relative viability (UMC-11; first compound 4 µM): 0.263

Reference: the supplement of paper PMC10307832
